Like-named read-outs stand apart in the source and are kept apart here.
Experiments:
[1] = system: HUVECs; experiment: High-content imaging cytotoxicity in HUVECs, 24 h; format: cell-based, human; details: Homo sapiens, HUVEC, 24 h, HUVECs; for viability at 0.01 µM / activity at 0.01 µM / viability at 0.1 µM / activity at 0.1 µM / viability at 1 µM / activity at 1 µM / viability at 10 µM / activity at 10 µM / viability at 100 µM / activity at 100 µM: 0.00 µM = 100.00; for viability at 0.1 µM / activity at 0.1 µM: 0.10 µM; for minimal effective concentration: top concentration 100.00 µM
Outline: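 Point-of-departure values derive from four-parameter logistic fits of vehicle-normalized imaging phenotypes (Hoechst 33342, MitoTracker Orange, calcein AM). The fits follow 24 h exposure of HUVEC monolayers at 37°C and 5% CO2, with a top tested concentration of 100μM.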

[2] = system: iCell cardiomyocytes (human iPSC-derived cardiomyocytes); experiment: High-content imaging of cytotoxicity and mitochondrial integrity in iPSC-CMs; format: cell-based; details: Homo sapiens; for viability at 0.01 µM / activity at 0.01 µM / viability at 0.1 µM / activity at 0.1 µM / viability at 1 µM / activity at 1 µM / viability at 10 µM / activity at 10 µM / viability at 100 µM / activity at 100 µM: Cardiomyocyte, 0.00 µM = 100.00; for viability at 0.1 µM / activity at 0.1 µM: 0.10 µM; for minimal effective concentration: iPSC-CM
Outline: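 Human iPSC-derived cardiomyocytes were seeded on gelatin-coated 384-well plates at 5,000 cells per well and maintained for 12 d. Test chemicals were added as 10μL of 5× solutions to final concentrations of 0.01 to 100μM. Cells were stained with Hoechst 33342 and MitoTracker™ Orange, fixed in formaldehyde, and imaged by confocal high-content microscopy at 10× magnification.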

[3] = 24 hr, read-out: huvec.cyto.24hr
[4] = 24 hr, read-out: huvec.mito.24hr
[5] = 24 hr, read-out: huvec.mitoint.24hr
[6] = 24 hr, read-out: huvec.nma.24hr
[7] = 24 hrs, read-out: huvec.tc.24hrs

Oc1ccc(-c2ccc(Cl)cc2)cc1 [4'-OH PCB3]
viability at 0.01 µM [1, 3]: 86.4% | activity at 0.01 µM [1, 4]: 85.6% | activity at 0.01 µM [1, 5]: 96.8% | activity at 0.01 µM [1, 6]: 96.6% | viability at 0.1 µM [1, 3]: 96.6% | activity at 0.1 µM [1, 4]: 95.3% | activity at 0.1 µM [1, 5]: 115% | activity at 0.1 µM [1, 6]: 97.7% | viability at 1 µM [1, 3]: 97.8% | activity at 1 µM [1, 4]: 97.4% | activity at 1 µM [1, 5]: 107% | activity at 1 µM [1, 6]: 102% | viability at 10 µM [1, 3]: 92.7% | activity at 10 µM [1, 4]: 86.8% | activity at 10 µM [1, 5]: 95.9% | activity at 10 µM [1, 6]: 92.6% | viability at 100 µM [1, 3]: 73.5% | activity at 100 µM [1, 4]: 36.5% | activity at 100 µM [1, 5]: 11.1% | activity at 100 µM [1, 6]: 80.7% | minimal effective concentration ([1]; 24 hr, read-out: huvec.cyto.24hr POD): 7.01 µM | minimal effective concentration ([1]; 24 hr, read-out: huvec.mito.24hr POD): 3.9 µM | minimal effective concentration ([1]; 24 hr, read-out: huvec.mitoint.24hr POD): 11.2 µM | minimal effective concentration ([1]; 24 hr, read-out: huvec.nma.24hr POD): 6.91 µM | viability at 0.01 µM [1, 7]: 86.4% | viability at 0.1 µM [1, 7]: 96.6% | viability at 1 µM [1, 7]: 97.8% | viability at 10 µM [1, 7]: 93.3% | viability at 100 µM [1, 7]: 77.9% | minimal effective concentration ([1]; 24 hrs, read-out: huvec.tc.24hrs POD): 7.01 µM | viability at 0.01 µM ([2]; 1.5 h, read-out: cm.cam.90min): 98.1% | activity at 0.01 µM ([2]; 1.5 h, read-out: cm.mii.90min): 97% | activity at 0.01 µM ([2]; 1.5 h, read-out: cm.mito.90min): 98.1% | viability at 0.01 µM ([2]; 1.5 h, read-out: cm.tc.90min): 98.1% | viability at 0.1 µM ([2]; 1.5 h, read-out: cm.cam.90min): 101% | activity at 0.1 µM ([2]; 1.5 h, read-out: cm.mii.90min): 100% | activity at 0.1 µM ([2]; 1.5 h, read-out: cm.mito.90min): 101% | viability at 0.1 µM ([2]; 1.5 h, read-out: cm.tc.90min): 102% | viability at 1 µM ([2]; 1.5 h, read-out: cm.cam.90min): 100% | activity at 1 µM ([2]; 1.5 h, read-out: cm.mii.90min): 98.2% | activity at 1 µM ([2]; 1.5 h, read-out: cm.mito.90min): 100% | viability at 1 µM ([2]; 1.5 h, read-out: cm.tc.90min): 100% | viability at 10 µM ([2]; 1.5 h, read-out: cm.cam.90min): 98% | activity at 10 µM ([2]; 1.5 h, read-out: cm.mii.90min): 98.5% | activity at 10 µM ([2]; 1.5 h, read-out: cm.mito.90min): 97.9% | viability at 10 µM ([2]; 1.5 h, read-out: cm.tc.90min): 97.9% | viability at 100 µM ([2]; 1.5 h, read-out: cm.cam.90min): 0% | activity at 100 µM ([2]; 1.5 h, read-out: cm.mii.90min): 0% | activity at 100 µM ([2]; 1.5 h, read-out: cm.mito.90min): 0% | viability at 100 µM ([2]; 1.5 h, read-out: cm.tc.90min): 0.0231% | viability at 0.01 µM ([2]; 24 h, read-out: cm.cam.24hrs): 98.2% | activity at 0.01 µM ([2]; 24 h, read-out: cm.mii.24hrs): 96.5% | activity at 0.01 µM ([2]; 24 h, read-out: cm.mito.24hrs): 95.9% | viability at 0.01 µM ([2]; 24 h, read-out: cm.tc.24hrs): 98.1% | viability at 0.1 µM ([2]; 24 h, read-out: cm.cam.24hrs): 99.2% | activity at 0.1 µM ([2]; 24 h, read-out: cm.mii.24hrs): 99.8% | activity at 0.1 µM ([2]; 24 h, read-out: cm.mito.24hrs): 97.4% | viability at 0.1 µM ([2]; 24 h, read-out: cm.tc.24hrs): 99% | viability at 1 µM ([2]; 24 h, read-out: cm.cam.24hrs): 104% | activity at 1 µM ([2]; 24 h, read-out: cm.mii.24hrs): 106% | activity at 1 µM ([2]; 24 h, read-out: cm.mito.24hrs): 103% | viability at 1 µM ([2]; 24 h, read-out: cm.tc.24hrs): 105% | viability at 10 µM ([2]; 24 h, read-out: cm.cam.24hrs): 102% | activity at 10 µM ([2]; 24 h, read-out: cm.mii.24hrs): 93.5% | activity at 10 µM ([2]; 24 h, read-out: cm.mito.24hrs): 103% | viability at 10 µM ([2]; 24 h, read-out: cm.tc.24hrs): 102% | viability at 100 µM ([2]; 24 h, read-out: cm.cam.24hrs): 0.07% | activity at 100 µM ([2]; 24 h, read-out: cm.mii.24hrs): 9.32% | activity at 100 µM ([2]; 24 h, read-out: cm.mito.24hrs): 0.05% | viability at 100 µM ([2]; 24 h, read-out: cm.tc.24hrs): 0.07% | minimal effective concentration ([2]; 1.5 h, read-out: cm.cam.90min POD): 12.4 µM | minimal effective concentration ([2]; 1.5 h, read-out: cm.mii.90min POD): 16 µM | minimal effective concentration ([2]; 1.5 h, read-out: cm.mito.90min POD): 11.5 µM | minimal effective concentration ([2]; 1.5 h, read-out: cm.tc.90min POD): 11.3 µM | minimal effective concentration ([2]; 24 h, read-out: cm.cam.24hrs POD): 32.3 µM | minimal effective concentration ([2]; 24 h, read-out: cm.mii.24hrs POD): 15.4 µM | minimal effective concentration ([2]; 24 h, read-out: cm.mito.24hrs POD): 37.2 µM | minimal effective concentration ([2]; 24 h, read-out: cm.tc.24hrs POD): 38.4 µM

Source: paper PMC7377239, “Cardiovascular Effects of Polychlorinated Biphenyls and Their Major Metabolites” (Environmental Health Perspectives, 2020)
